Data published in patent US20170283804A1, “ANTISENSE COMPOUNDS AND USES THEREOF” (Ionis Pharmaceuticals, Inc., priority 2014, published 2017).
Oligonucleotides are written 5' to 3', each unit as a sugar letter and its base; * is a phosphorothioate linkage, no mark a phosphodiester; rarer units and linkages stand in square brackets, end groups in braces. Plain capitals give the bases only. e = 2'-O-(2-methoxyethyl) (MOE); k = constrained ethyl (cEt); [5mC] = 5-methylcytosine; d = 2'-deoxy (DNA)

Assays:
[1] = tested on: mouse Scavenger Receptor Class B, Number 1 (SRB-1) transcript; test: Isis No. 353382 activity in MHT cells with or without bioactive lipid pre-treatment (SRB-1 mRNA, real-time PCR); assay type: cell-based
Text: Antisense oligonucleotides were synthesized using standard solid phase oligonucleotide synthetic methods. Isis No. 353382 targets the mouse Scavenger Receptor Class B, Number 1 (SRB-1) transcript (GENBANK accession number NM_016741.1, SEQ ID NO: 1). The sequence of Isis No. 353382 is 5′-[…]-3′ (SEQ ID NO: 2). It is a 5-10-5 MOE gapmer, wherein the five nucleosides at the 5′-end and the five nucleosides at the 3′-end comprise 2′-methoxyethyl (MOE) modifications, and the ten middle nucleosides are 2′-deoxynucleosides. All internucleoside linkages are phosphorothioate linkages. The cytosine bases are 5-methylcytosines.
In order to test the effect of pre-treatment with bioactive lipids on Isis No. 353382 activity in vitro, mouse hepatocellular SV40 large T-antigen (MHT) carcinoma cells were treated with 200 nM myriocin or 3 μM FTY-720 was added 2 hours before Isis No. 353382 at the concentrations shown in Tables 1 and 2 below. Cells were lysed 24 hours following oligonucleotide addition, and total RNA was purified. SRB-1 mRNA levels were determined using real-time PCR and RIBOGREEN® RNA quantification reagent (Molecular Probes, Inc. Eugene, Oreg.) according to standard protocols.

[2] = tested on: mouse Metastasis associated lung adenocarcinoma transcript 1 (Malat-1); test: In vivo dose response of Isis No. 556062 with and without FTY-720 pre-treatment (Malat-1 RNA, Example 3); conditions: mice; liver; 1 mg/kg FTY-720 i.p. once a day for 11 days; Isis No. 556062 subcutaneous on day 10
Procedure: Each treatment group consisted of 4 animals.
Malat-1 RNA levels were determined as described in Example 2. The results are presented in Table 18 as average Malat-1 RNA levels for each treatment group. Results for groups that received Isis No. 556062 alone are relative the group that received only PBS, and results for groups that received Isis No. 556062 and 1 mg/kg FTY-720 are relative to the group that received 1 mg/kg FTY-720 and PBS in place of Isis No. 556062.

[3] = tested on: mouse Metastasis associated lung adenocarcinoma transcript 1 (Malat-1); test: In vivo activity of Isis No. 556062 with and without FTY-720 pre-treatment (Malat-1 RNA in tissues, Example 2); conditions: mice
Text: Isis No. 556062 targets the mouse Metastasis associated lung adenocarcinoma transcript 1 (Malat-1, GENBANK accession number NR_002847.2, SEQ ID NO: 3). The sequence of Isis No. 556062 is 5′-GGCTTAATGCAGCATT-3′ (SEQ ID NO: 4). It is a 3-10-3 (S)-cEt gapmer, wherein the three nucleosides at the 5′-end and the three nucleosides at the 3′-end comprise 2′-O—CH(CH3)-4′ modifications, and the ten middle nucleosides are 2′-deoxynucleosides. All internucleoside linkages are phosphorothioate linkages. The cytosine bases are 5-methylcytosines.
Malat-1 RNA levels were determined using real-time PCR and RIBOGREEN® RNA quantification reagent (Molecular Probes, Inc. Eugene, OR) according to standard protocols. Malat-1 RNA levels were determined relative to total RNA (using Ribogreen), prior to normalization to PBS-treated control. The results are presented in Table 16 as average Malat-1 RNA levels for each treatment group. Results for groups that received Isis No. 556062 alone are relative the group that received only PBS, and results for groups that received Isis No. 556062 and FTY-720 are relative to the group that received 3 mg/kg FTY-720 and PBS in place of Isis No. 556062.

Molecule: CCCCCCCCc1ccc(CCC(N)(CO)CO)cc1 [FTY-720, 2-amino-2-[2-(4-octylphenyl)ethyl]propane-1,3-diol, reference compound]
- Effect of pre-treatment on the effect of Isis No. 353382 in vitro ([1]; 3 μM FTY-720 2 hours before Isis No. 353382): potentiated the effect of Isis No. 353382
- Effect of pre-treatment on the effect of Isis No. 556062 in vivo [2]: potentiated the effect of Isis No. 556062
- Effect of pre-treatment on the effect of Isis No. 556062 in vivo ([3]; liver and fat, FTY-720 0.3, 1 or 3 mg/kg i.p. once a day for 11 days, Isis No. 556062 i.p. on day 10): potentiated the effect of Isis No. 556062

Molecule: CCCCCCC(=O)CCCCCC/C=C/C[C@@H](O)[C@H](O)[C@@](N)(CO)C(=O)O [myriocin, reference compound]
- Effect of pre-treatment on the effect of Isis No. 353382 in vitro ([1]; 200 nM myriocin 2 hours before Isis No. 353382): potentiated the effect of Isis No. 353382

Molecule: Isis No. 353382: 5-10-5 MOE gapmer 5′-GCTTCAGTCATGACTTCCTT-3′ (SEQ ID NO: 2), all phosphorothioate linkages, 5-methylcytosines; targets mouse SRB-1 transcript (antisense eG*e[5mC]*eT*eT*e[5mC]*dA*dG*dT*d[5mC]*dA*dT*dG*dA*d[5mC]*dT*eT*e[5mC]*e[5mC]*eT*eT)
- Average SRB-1 mRNA level in cells receiving 200 nM myriocin ([1]; 0.16 nM Isis No. 353382, 200 nM myriocin added 2 hours before, 24 hours): 73.5 % control
- Average SRB-1 mRNA level in cells receiving 3 μM FTY-720 ([1]; 0.16 nM Isis No. 353382, 3 μM FTY-720 added 2 hours before, 24 hours): 85.5 % control
- Average SRB-1 mRNA level in cells receiving no pre-treatment ([1]; 0.16 nM Isis No. 353382, 24 hours, no pre-treatment): 96.9 % control
- Average SRB-1 mRNA level in cells receiving no pre-treatment ([1]; 0.16 nM Isis No. 353382, no pre-treatment, 24 hours): 91.8 % control
- Average SRB-1 mRNA level in cells receiving 200 nM myriocin ([1]; 0.64 nM Isis No. 353382, 200 nM myriocin added 2 hours before, 24 hours): 73.2 % control
- Average SRB-1 mRNA level in cells receiving 3 μM FTY-720 ([1]; 0.64 nM Isis No. 353382, 3 μM FTY-720 added 2 hours before, 24 hours): 77.8 % control
- Average SRB-1 mRNA level in cells receiving no pre-treatment ([1]; 0.64 nM Isis No. 353382, 24 hours, no pre-treatment): 95.9 % control
- Average SRB-1 mRNA level in cells receiving no pre-treatment ([1]; 0.64 nM Isis No. 353382, no pre-treatment, 24 hours): 87.8 % control
- Average SRB-1 mRNA level in cells receiving 200 nM myriocin ([1]; 3.2 nM Isis No. 353382, 200 nM myriocin added 2 hours before, 24 hours): 46.8 % control
- Average SRB-1 mRNA level in cells receiving 3 μM FTY-720 ([1]; 3.2 nM Isis No. 353382, 3 μM FTY-720 added 2 hours before, 24 hours): 65.9 % control
- Average SRB-1 mRNA level in cells receiving no pre-treatment ([1]; 3.2 nM Isis No. 353382, 24 hours, no pre-treatment): 72.2 % control
- Average SRB-1 mRNA level in cells receiving no pre-treatment ([1]; 3.2 nM Isis No. 353382, no pre-treatment, 24 hours): 80.9 % control
- Average SRB-1 mRNA level in cells receiving 200 nM myriocin ([1]; 16 nM Isis No. 353382, 200 nM myriocin added 2 hours before, 24 hours): 36.1 % control
- Average SRB-1 mRNA level in cells receiving 3 μM FTY-720 ([1]; 16 nM Isis No. 353382, 3 μM FTY-720 added 2 hours before, 24 hours): 46.5 % control
- Average SRB-1 mRNA level in cells receiving no pre-treatment ([1]; 16 nM Isis No. 353382, 24 hours, no pre-treatment): 46.3 % control
- Average SRB-1 mRNA level in cells receiving no pre-treatment ([1]; 16 nM Isis No. 353382, no pre-treatment, 24 hours): 74.3 % control
- Average SRB-1 mRNA level in cells receiving 200 nM myriocin ([1]; 80 nM Isis No. 353382, 200 nM myriocin added 2 hours before, 24 hours): 27.2 % control
- Average SRB-1 mRNA level in cells receiving 3 μM FTY-720 ([1]; 80 nM Isis No. 353382, 3 μM FTY-720 added 2 hours before, 24 hours): 27.1 % control
- Average SRB-1 mRNA level in cells receiving no pre-treatment ([1]; 80 nM Isis No. 353382, 24 hours, no pre-treatment): 32.3 % control
- Average SRB-1 mRNA level in cells receiving no pre-treatment ([1]; 80 nM Isis No. 353382, no pre-treatment, 24 hours): 53.5 % control
- Average SRB-1 mRNA level in cells receiving 200 nM myriocin ([1]; 400 nM Isis No. 353382, 200 nM myriocin added 2 hours before, 24 hours): 23.5 % control
- Average SRB-1 mRNA level in cells receiving 3 μM FTY-720 ([1]; 400 nM Isis No. 353382, 3 μM FTY-720 added 2 hours before, 24 hours): 23.6 % control
- Average SRB-1 mRNA level in cells receiving no pre-treatment ([1]; 400 nM Isis No. 353382, 24 hours, no pre-treatment): 26.8 % control
- Average SRB-1 mRNA level in cells receiving no pre-treatment ([1]; 400 nM Isis No. 353382, no pre-treatment, 24 hours): 52.2 % control
- Average SRB-1 mRNA level in cells receiving 200 nM myriocin ([1]; 2,000 nM Isis No. 353382, 200 nM myriocin added 2 hours before, 24 hours): 19.6 % control
- Average SRB-1 mRNA level in cells receiving 3 μM FTY-720 ([1]; 2,000 nM Isis No. 353382, 3 μM FTY-720 added 2 hours before, 24 hours): 16.8 % control
- Average SRB-1 mRNA level in cells receiving no pre-treatment ([1]; 2,000 nM Isis No. 353382, 24 hours, no pre-treatment): 22.4 % control
- Average SRB-1 mRNA level in cells receiving no pre-treatment ([1]; 2,000 nM Isis No. 353382, no pre-treatment, 24 hours): 44.9 % control
- Average SRB-1 mRNA level in cells receiving 200 nM myriocin ([1]; 10,000 nM Isis No. 353382, 200 nM myriocin added 2 hours before, 24 hours): 15.6 % control
- Average SRB-1 mRNA level in cells receiving 3 μM FTY-720 ([1]; 10,000 nM Isis No. 353382, 3 μM FTY-720 added 2 hours before, 24 hours): 12.1 % control
- Average SRB-1 mRNA level in cells receiving no pre-treatment ([1]; 10,000 nM Isis No. 353382, 24 hours, no pre-treatment): 16.6 % control
- Average SRB-1 mRNA level in cells receiving no pre-treatment ([1]; 10,000 nM Isis No. 353382, no pre-treatment, 24 hours): 36.0 % control

Molecule: Isis No. 556062: 3-10-3 (S)-cEt gapmer 5′-GGCTTAATGCAGCATT-3′ (SEQ ID NO: 4), all phosphorothioate linkages, 5-methylcytosines; targets mouse Malat-1 (antisense kG*kG*k[5mC]*dT*dT*dA*dA*dT*dG*d[5mC]*dA*dG*d[5mC]*kA*kT*kT)
- Average Malat-1 RNA ([3]; Fat, 2 mg/kg Isis No. 556062 i.p., 0 mg/kg FTY-720): 89 % control
- Average Malat-1 RNA ([3]; Fat, 2 mg/kg Isis No. 556062 i.p., 0.3 mg/kg FTY-720 i.p. daily): 54 % control
- Average Malat-1 RNA ([3]; Fat, 2 mg/kg Isis No. 556062 i.p., 1 mg/kg FTY-720 i.p. daily): 69 % control
- Average Malat-1 RNA ([3]; Fat, 2 mg/kg Isis No. 556062 i.p., 3 mg/kg FTY-720 i.p. daily): 45 % control
- Average Malat-1 RNA ([3]; Fat, 10 mg/kg Isis No. 556062 i.p., 0 mg/kg FTY-720): 63 % control
- Average Malat-1 RNA ([3]; Fat, 10 mg/kg Isis No. 556062 i.p., 0.3 mg/kg FTY-720 i.p. daily): 39 % control
- Average Malat-1 RNA ([3]; Fat, 10 mg/kg Isis No. 556062 i.p., 1 mg/kg FTY-720 i.p. daily): 32 % control
- Average Malat-1 RNA ([3]; Fat, 10 mg/kg Isis No. 556062 i.p., 3 mg/kg FTY-720 i.p. daily): 39 % control
- Average Malat-1 RNA ([3]; Liver, 2 mg/kg Isis No. 556062 i.p., 0 mg/kg FTY-720): 36 % control
- Average Malat-1 RNA ([3]; Liver, 2 mg/kg Isis No. 556062 i.p., 0.3 mg/kg FTY-720 i.p. daily): 30 % control
- Average Malat-1 RNA ([3]; Liver, 2 mg/kg Isis No. 556062 i.p., 1 mg/kg FTY-720 i.p. daily): 23 % control
- Average Malat-1 RNA ([3]; Liver, 2 mg/kg Isis No. 556062 i.p., 3 mg/kg FTY-720 i.p. daily): 24 % control
- Average Malat-1 RNA ([3]; Liver, 10 mg/kg Isis No. 556062 i.p., 0 mg/kg FTY-720): 12 % control
- Average Malat-1 RNA ([3]; Liver, 10 mg/kg Isis No. 556062 i.p., 0.3 mg/kg FTY-720 i.p. daily): 9 % control
- Average Malat-1 RNA ([3]; Liver, 10 mg/kg Isis No. 556062 i.p., 1 mg/kg FTY-720 i.p. daily): 7 % control
- Average Malat-1 RNA ([3]; Liver, 10 mg/kg Isis No. 556062 i.p., 3 mg/kg FTY-720 i.p. daily): 10 % control
